The results in this text go back to patent US11840686B2, “Modulation of prekallikrein (PKK) expression” (Ionis Pharmaceuticals, Inc., priority 2013, dated 2023).

Strand notation (5' to 3'): a small letter for the sugar, then the base; units joined by * are phosphorothioate-linked, units joined directly phosphodiester-linked; [ ] holds rarer units or linkages, { } end groups; capitals alone tell only the bases. e = 2'-O-(2-methoxyethyl) (MOE); k = constrained ethyl (cEt); [5mC] = 5-methylcytosine; d = 2'-deoxy (DNA)

This data set relates to human PKK mRNA. Description: Antisense inhibition of human PKK mRNA in HepaRG cells, 1,000 nM, MOE/deoxy/cEt oligonucleotides (Example 3). It is filed as cell-based. The essentials: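 Readout is percent PKK mRNA reduction against untreated controls, by real-time PCR (RTS3454) adjusted for total RNA via RIBOGREEN. Oligonucleotides, phosphorothioate gapmers of 16 nucleosides with cEt, MOE and deoxy sugars, were delivered at 1,000 nM by electroporation to 20,000 HepaRG cells/well for roughly 24 h.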

Setting [1] is: HepaRG cells, electroporation with 1,000 nM antisense oligonucleotide, approximately 24 hours, primer probe set RTS3454, relative to untreated control cells, experiment of Table 23.
Setting [2] is: Table 19, HepaRG cells, electroporation with 1,000 nM antisense oligonucleotide, approximately 24 hours, PKK mRNA by RT-PCR (RTS3454), relative to untreated control cells.
The mark [3] stands for this setting: Table 20, HepaRG cells, electroporation with 1,000 nM antisense oligonucleotide, approximately 24 hours, PKK mRNA by RT-PCR (RTS3454), relative to untreated control cells.
[4] abbreviates: Table 22 experiment, HepaRG cells, electroporation with 1,000 nM antisense oligonucleotide, approx. 24 hours, PKK mRNA by RT-PCR (RTS3454), relative to untreated control cells.
Where [5] appears, read: HepaRG cells, 1,000 nM antisense oligonucleotide, Table 29.
Setting [6] is: Table 30, human PKK mRNA, HepaRG cells, 1,000 nM antisense oligonucleotide.
Where [7] appears, read: Table 27, HepaRG cells, 1,000 nM antisense oligonucleotide, human PKK mRNA.
[8] abbreviates: HepaRG cells, electroporation with 1,000 nM antisense oligonucleotide, approx. 24 hours, PKK mRNA by RT-PCR (RTS3454), relative to untreated control cells, Table 26 experiment.
Where [9] appears, read: HepaRG cells, electroporation with 1,000 nM antisense oligonucleotide, approximately 24 hours, primer probe set RTS3454, relative to untreated control cells, experiment of Table 24.
Setting [10] is: HepaRG cells, electroporation with 1,000 nM antisense oligonucleotide, approx. 24 hours, PKK mRNA by RT-PCR (RTS3454), relative to untreated control cells, Table 25 experiment.
Where [11] appears, read: Table 21 experiment, HepaRG cells, electroporation with 1,000 nM antisense oligonucleotide, approx. 24 hours, PKK mRNA by RT-PCR (RTS3454), relative to untreated control cells.

By % inhibition is commonly meant the relative decrease from the control value, in per cent. Low readings indicate a weak effect, high ones a strong effect. “548654 (antisense eA*e[5mC]*k[5mC]*dA*dT*dT*d[5mC]*d[5mC]*dT*dG*dA*d[5mC]*d[5mC]*kA*kT*eG) [compound 548654]”: the “% inhibition” value (PKK mRNA, HepaRG cells, 1,000 nM antisense oligonucleotide, Table 31) turned out to be 34%.
As for “547991 (antisense eT*eA*k[5mC]*dA*dG*dT*d[5mC]*dT*dT*d[5mC]*dT*dG*dG*kG*kA*eG) [compound 547991]”, the “% inhibition” value under setting [1] was determined as 0%.
Take “548090 (antisense e[5mC]*eA*kA*dA*d[5mC]*dT*dA*dA*dG*dG*dG*dA*d[5mC]*k[5mC]*kA*e[5mC]) [compound 548090]”: under setting [2], the “% inhibition” value was found to be 46%.
“548121 (antisense eT*e[5mC]*kT*dG*dG*dA*d[5mC]*dT*dG*d[5mC]*dT*dT*d[5mC]*kT*k[5mC]*eA) [compound 548121]”: the “% inhibition” value under setting [2] is recorded as 64%.
Turning to “547889 (eT*eT*k[5mC]*d[5mC]*dG*dG*dT*dA*d[5mC]*dT*d[5mC]*dT*dG*k[5mC]*k[5mC]*eT; antisense) [compound 547889]”, the “% inhibition” value reads like this: under setting [3], 91%; under setting [4], 97%.
For the substance “547987 (antisense eA*e[5mC]*kA*dG*d[5mC]*dG*dA*dA*dT*d[5mC]*dA*dT*d[5mC]*kT*kT*eT) [compound 547987]”, under setting [1], the “% inhibition” value came out at 64%.
As for “548536 (antisense eT*e[5mC]*kT*d[5mC]*dA*dA*dT*d[5mC]*d[5mC]*d[5mC]*dA*dA*d[5mC]*k[5mC]*k[5mC]*e[5mC]) [compound 548536]”, under setting [5], the “% inhibition” value was determined as 0%.
Consider “547959 (eG*e[5mC]*kA*dG*dG*dT*dT*dA*dA*dA*dA*dG*dG*k[5mC]*kT*eA; antisense) [compound 547959]”, for which the “% inhibition” value under setting [1] was determined as 60%.
Take “547983 (antisense eG*eA*kA*dT*d[5mC]*dA*dT*d[5mC]*dT*dT*dT*dG*dT*kG*k[5mC]*eA) [compound 547983]”: under setting [1], the “% inhibition” value stood at 56%.
“548418 (antisense eT*eA*kT*dA*dT*d[5mC]*dA*d[5mC]*dT*dG*dT*d[5mC]*d[5mC]*kT*kA*eT) [compound 548418]”: the “% inhibition” value under setting [6] is 39%.
Turning to “548134 (e[5mC]*eA*kG*dA*dA*dT*dT*dT*dG*dA*d[5mC]*dT*dT*kG*kA*eA; antisense) [compound 548134]”, the “% inhibition” value under setting [2] stood at 17%.
Turning to “548316 (e[5mC]*eT*kG*dT*dT*d[5mC]*dA*dG*dG*dT*dA*dG*d[5mC]*kA*k[5mC]*eA; antisense) [compound 548316]”, the “% inhibition” value under setting [7] came to 64%.
For “547929 (eA*eG*kA*dT*dG*dG*dT*d[5mC]*d[5mC]*dG*dA*d[5mC]*dA*k[5mC]*kA*e[5mC]; antisense) [compound 547929]”, under setting [1], the “% inhibition” value came to 65%.
On to “548255 (antisense e[5mC]*e[5mC]*k[5mC]*d[5mC]*dA*dT*dG*d[5mC]*dA*dT*dA*d[5mC]*dT*k[5mC]*kG*e[5mC]) [compound 548255]”, for which the “% inhibition” value under setting [8] was determined as 38%.
With “548357 (antisense eG*eA*k[5mC]*dG*dA*d[5mC]*dT*dG*d[5mC]*d[5mC]*d[5mC]*dT*dG*kT*kG*e[5mC]) [compound 548357]”, under setting [7], the “% inhibition” value is recorded as 69%.
Consider “548065 (eT*eT*kG*dG*dT*dA*dT*dA*dA*dA*dT*dT*dG*kT*kG*e[5mC]; antisense) [compound 548065]”, for which the “% inhibition” value under setting [9] turned out to be 22%.
In the case of “548167 (eT*eG*k[5mC]*dG*dA*d[5mC]*d[5mC]*dT*d[5mC]*dG*d[5mC]*dA*dT*kT*kG*eT; antisense) [compound 548167]”, under setting [10], the “% inhibition” value is recorded as 36%.
Take “548551 (antisense e[5mC]*eG*kG*d[5mC]*d[5mC]*dA*dA*dT*dG*dG*dG*dA*dA*kA*kG*eG) [compound 548551]”: the “% inhibition” value under setting [5] was found to be 25%.
Consider “548240 (eA*eT*kA*d[5mC]*dT*d[5mC]*dG*d[5mC]*d[5mC]*dT*dT*dT*dG*kT*kG*eA; antisense) [compound 548240]”, for which the “% inhibition” value under setting [8] was 3%.
On to “547999 (antisense e[5mC]*e[5mC]*kT*dT*dG*dT*dG*dT*d[5mC]*d[5mC]*d[5mC]*dA*dT*kA*k[5mC]*eG) [compound 547999]”, for which, under setting [9], the “% inhibition” value was determined as 50%.
On to “548358 (antisense eA*eT*kT*dT*dG*dG*dG*d[5mC]*d[5mC]*dT*dA*dG*dT*kG*kG*eT) [compound 548358]”, for which the “% inhibition” value under setting [7] is reported as 0%.
In the case of “548392 (eG*eT*kA*dG*dA*dG*d[5mC]*dA*dT*dG*dG*dA*dG*k[5mC]*kG*eA; antisense) [compound 548392]”, the “% inhibition” value under setting [6] amounted to 31%.
As for “548152 (e[5mC]*eG*kG*dG*d[5mC]*dT*dT*d[5mC]*dA*dG*d[5mC]*d[5mC]*dA*kG*kA*e[5mC]; antisense) [compound 548152]”, under setting [10], the “% inhibition” value worked out at 32%.
Take “547916 (e[5mC]*e[5mC]*kT*dG*dG*d[5mC]*dA*dA*d[5mC]*dA*dT*d[5mC]*d[5mC]*kA*k[5mC]*eA; antisense) [compound 547916]”: the “% inhibition” value runs as follows: under setting [3], 70%; under setting [4], 56%.
For the substance “548163 (eA*e[5mC]*k[5mC]*dT*d[5mC]*dG*d[5mC]*dA*dT*dT*dG*dT*d[5mC]*kA*kG*e[5mC]; antisense) [compound 548163]”, the “% inhibition” value under setting [10] was 46%.
Take “548344 (antisense eG*eG*k[5mC]*dA*dA*d[5mC]*dT*dA*dT*dG*dT*dT*d[5mC]*kT*k[5mC]*eA) [compound 548344]”: under setting [7], the “% inhibition” value was 76%.
As for “548296 (eA*e[5mC]*k[5mC]*dA*dA*d[5mC]*dA*dA*d[5mC]*dT*d[5mC]*dA*dG*kG*k[5mC]*e[5mC]; antisense) [compound 548296]”, under setting [8], the “% inhibition” value is listed as 34%.
For the substance “548577 (eA*eA*kT*d[5mC]*dT*dG*d[5mC]*dA*d[5mC]*d[5mC]*dT*dG*dG*k[5mC]*kA*eG; antisense) [compound 548577]”, the “% inhibition” value under setting [5] was determined as 42%.
For “548323 (e[5mC]*eT*kG*dT*dT*dG*d[5mC]*d[5mC]*dT*dG*dA*d[5mC]*dA*kT*kG*e[5mC]; antisense) [compound 548323]”, under setting [7], the “% inhibition” value is on record as 43%.
As to “548398 (eA*eT*kA*dG*dG*d[5mC]*dA*dA*dT*dT*dG*dT*dT*k[5mC]*k[5mC]*eT; antisense) [compound 548398]”, the “% inhibition” value under setting [6] worked out at 55%.
As to “548453 (eT*eA*k[5mC]*d[5mC]*dT*dA*dT*dA*dA*d[5mC]*dA*dG*dT*kA*kT*e[5mC]; antisense) [compound 548453]”, the “% inhibition” value under setting [6] is listed as 12%.
As to “548073 (e[5mC]*eT*kT*dT*d[5mC]*dT*d[5mC]*d[5mC]*dT*dT*d[5mC]*dG*dA*kG*kA*eA; antisense) [compound 548073]”, the “% inhibition” value under setting [9] was found to be 24%.
For “548606 (e[5mC]*eG*kG*dT*dG*dG*dT*dG*dG*dG*dA*dT*dT*kG*kG*eT; antisense) [compound 548606]”, the “% inhibition” value under setting [5] came to 41%.
“548168 (eT*eT*kG*d[5mC]*dG*dA*d[5mC]*d[5mC]*dT*d[5mC]*dG*d[5mC]*dA*kT*kT*eG; antisense) [compound 548168]”: the “% inhibition” value under setting [10] is recorded as 61%.
On to “548023 (eG*e[5mC]*kT*dT*d[5mC]*dA*d[5mC]*d[5mC]*dT*dG*d[5mC]*dA*dG*kG*k[5mC]*eT; antisense) [compound 548023]”, for which the “% inhibition” value under setting [9] turned out to be 58%.
Take “547783 (antisense e[5mC]*eA*k[5mC]*dA*dA*dT*dT*dG*d[5mC]*dT*dT*d[5mC]*dT*kT*kG*eG) [compound 547783]”: under setting [11], the “% inhibition” value was determined as 48%.
“548442 (antisense eT*eT*k[5mC]*d[5mC]*dT*dA*dT*dA*dA*d[5mC]*dA*dG*dT*kA*kT*e[5mC]) [compound 548442]”: under setting [6], the “% inhibition” value is 17%.
In the case of “547954 (eT*eA*kA*dA*dA*dG*dG*d[5mC]*dT*dA*dT*dA*dT*k[5mC]*k[5mC]*eA; antisense) [compound 547954]”, under setting [1], the “% inhibition” value is 36%.
Take “548516 (antisense e[5mC]*eT*kT*dG*d[5mC]*d[5mC]*dT*dA*dT*dT*d[5mC]*dA*d[5mC]*k[5mC]*k[5mC]*e[5mC]) [compound 548516]”: the “% inhibition” value (Table 28, HepaRG cells, 1,000 nM antisense oligonucleotide, human PKK mRNA) is recorded as 49%.
For “548034 (eA*eT*kA*dG*dA*dT*dG*d[5mC]*dG*d[5mC]*d[5mC]*dA*dA*kA*k[5mC]*eA; antisense) [compound 548034]”, the “% inhibition” value under setting [9] was determined as 31%.
For “547920 (eG*eA*kG*dA*dA*d[5mC]*d[5mC]*d[5mC]*dT*dG*dG*d[5mC]*dA*kA*k[5mC]*eA; antisense) [compound 547920]”, the “% inhibition” value under setting [1] came to 52%.
For the substance “547958 (e[5mC]*eA*kG*dG*dT*dT*dA*dA*dA*dA*dG*dG*d[5mC]*kT*kA*eT; antisense) [compound 547958]”, the “% inhibition” value under setting [1] is recorded as 57%.
For “548127 (eT*eT*kG*d[5mC]*d[5mC]*dT*dA*dG*dA*d[5mC]*dT*d[5mC]*dT*kG*kG*eA; antisense) [compound 548127]”, the “% inhibition” value under setting [2] was 60%.
Regarding “547833 (eA*eA*k[5mC]*dT*dG*d[5mC]*dA*d[5mC]*d[5mC]*dT*dG*dT*dT*k[5mC]*kG*eA; antisense) [compound 547833]”, under setting [11], the “% inhibition” value was 40%.
